{"source": "patent US9598359B2", "about": "“Sulfonates from natural oil metathesis” (priority 2010, dated 2017)", "key": {"[1]": {"type": "physicochemical", "set-up": "key to Spont. (spontaneity or bloom): E (excellent); G (good); F (fair); P (poor)", "conditions": "for % Separation, 1 h / % Separation, 24 h: C = cream; for % Separation, 24 h, oil: O = oil separated, Tr = trace of oil"}}, "note": "Like-named read-outs stand apart in the source and are kept apart here.", "data": [{"compound": "C=CCCCCCCCC(=O)OC(CCCCCCCC(=O)[O-])CS(=O)(=O)[O-].[Na+].[Na+]", "note": "(centres unmarked) [C10-32, C10 UFA SLA]", "values": [{"measurement": "Spont. (spontaneity or bloom)", "setting": "[1]; 34 ppm water", "result": "F"}, {"measurement": "% Separation, 1 h", "setting": "[1]; 34 ppm water", "result": 3, "unit": "%"}, {"measurement": "% Separation, 24 h", "setting": "[1]; 34 ppm water", "result": 3.9, "unit": "%"}, {"measurement": "Spont. (spontaneity or bloom)", "setting": "[1]; 1000 ppm water", "result": "F"}, {"measurement": "% Separation, 1 h", "setting": "[1]; 1000 ppm water", "result": 2.5, "unit": "%"}, {"measurement": "% Separation, 24 h", "setting": "[1]; 1000 ppm water", "result": 3, "unit": "%"}, {"measurement": "Emulsion stability, mL separation, 1 h", "setting": "Adjuvant (anionic/nonionic) test sample", "result": 0, "unit": "mL"}, {"measurement": "Emulsion stability, mL separation, 24 h", "setting": "Adjuvant (anionic/nonionic) test sample, Tr = trace", "result": "Tr"}, {"measurement": "Emulsion stability, mL separation, 1 h", "setting": "Anionic test sample", "result": 0, "unit": "mL"}, {"measurement": "Emulsion stability, mL separation, 24 h", "setting": "Anionic test sample", "result": 0, "unit": "mL"}, {"measurement": "sol (solubility)", "setting": "Anionic test sample, 342 ppm water, 30° C.", "result": "S"}, {"measurement": "Emulsion stability, mL separation, 1 h", "setting": "Nonionic test sample", "result": 1, "unit": "mL"}, {"measurement": "Emulsion stability, mL separation, 24 h", "setting": "Nonionic test sample", "result": 1, "unit": "mL"}]}, {"compound": "CCCCCCCCCC(=O)OC(CCCCCCCC(=O)OC)CS(=O)(=O)[O-].[Na+]", "note": "(centres unmarked) [C10-35, C10 UME C10 FA (60:40) SLA]", "values": [{"measurement": "Spont. (spontaneity or bloom)", "setting": "[1]; 34 ppm water", "result": "F"}, {"measurement": "% Separation, 1 h", "setting": "[1]; 34 ppm water", "result": 3, "unit": "%"}, {"measurement": "% Separation, 24 h", "setting": "[1]; 34 ppm water", "result": 3, "unit": "%"}, {"measurement": "Spont. (spontaneity or bloom)", "setting": "[1]; 1000 ppm water", "result": "F"}, {"measurement": "% Separation, 1 h", "setting": "[1]; 1000 ppm water", "result": 3.4, "unit": "%"}, {"measurement": "% Separation, 24 h", "setting": "[1]; 1000 ppm water", "result": 4, "unit": "%"}]}, {"compound": "CCCCCCCCCCCC(=O)OC(CCCCCCCC(=O)[O-])C(CC)S(=O)(=O)[O-].[Na+].[Na+]", "note": "(centres unmarked) [C12-35, C12 UFA C12 FA (80:20) SLA]", "values": [{"measurement": "Spont. (spontaneity or bloom)", "setting": "[1]; 34 ppm water", "result": "F"}, {"measurement": "% Separation, 1 h", "setting": "[1]; 34 ppm water", "result": 3.8, "unit": "%"}, {"measurement": "% Separation, 24 h", "setting": "[1]; 34 ppm water", "result": "5 C, %"}, {"measurement": "% Separation, 24 h, oil", "setting": "[1]; 34 ppm water", "result": "Tr"}, {"measurement": "Spont. (spontaneity or bloom)", "setting": "[1]; 1000 ppm water", "result": "F"}, {"measurement": "% Separation, 1 h", "setting": "[1]; 1000 ppm water", "result": 3, "unit": "%"}, {"measurement": "% Separation, 24 h", "setting": "[1]; 1000 ppm water", "result": "4 C, %"}, {"measurement": "% Separation, 24 h, oil", "setting": "[1]; 1000 ppm water", "result": "Tr"}]}, {"compound": "CCCCCCCCCCCCCCCCCC(=O)OC(CCCCCCCC(=O)[O-])C(CC)S(=O)(=O)[O-].[Na+].[Na+]", "note": "(centres unmarked) [C12-36, C12 UFA C18 FA (80:20) SLA]", "values": [{"measurement": "Spont. (spontaneity or bloom)", "setting": "[1]; 34 ppm water", "result": "F"}, {"measurement": "% Separation, 1 h", "setting": "[1]; 34 ppm water", "result": 3.8, "unit": "%"}, {"measurement": "% Separation, 24 h", "setting": "[1]; 34 ppm water", "result": "4.5 C, %"}, {"measurement": "% Separation, 24 h, oil", "setting": "[1]; 34 ppm water", "result": "Tr"}, {"measurement": "Spont. (spontaneity or bloom)", "setting": "[1]; 1000 ppm water", "result": "F"}, {"measurement": "% Separation, 1 h", "setting": "[1]; 1000 ppm water", "result": 3.6, "unit": "%"}, {"measurement": "% Separation, 24 h", "setting": "[1]; 1000 ppm water", "result": "4 C, %"}, {"measurement": "% Separation, 24 h, oil", "setting": "[1]; 1000 ppm water", "result": "Tr"}]}, {"compound": "CCCCCCCCCCCC(=O)OC(CCCCCCCC(=O)OC)C(CC)S(=O)(=O)[O-].[Na+]", "note": "(centres unmarked) [C12-37, C12 UME C12 FA (60:40) SLA]", "values": [{"measurement": "Spont. (spontaneity or bloom)", "setting": "[1]; 34 ppm water", "result": "F"}, {"measurement": "% Separation, 1 h", "setting": "[1]; 34 ppm water", "result": 3, "unit": "%"}, {"measurement": "% Separation, 24 h", "setting": "[1]; 34 ppm water", "result": "4 C, %"}, {"measurement": "% Separation, 24 h, oil", "setting": "[1]; 34 ppm water", "result": "<1", "unit": "O %"}, {"measurement": "Spont. (spontaneity or bloom)", "setting": "[1]; 1000 ppm water", "result": "F"}, {"measurement": "% Separation, 1 h", "setting": "[1]; 1000 ppm water", "result": 3, "unit": "%"}, {"measurement": "% Separation, 24 h", "setting": "[1]; 1000 ppm water", "result": "3 C, %"}, {"measurement": "% Separation, 24 h, oil", "setting": "[1]; 1000 ppm water", "result": 1, "unit": "O %"}]}, {"compound": "CCCCCCCCCC(=O)OC(CCCCCCCC(=O)OC)C(CCCCCCCC(=O)OC)S(=O)(=O)[O-].[Na+]", "note": "(centres unmarked) [C18-63, DBE C10 FA (60:40) SLA]", "values": [{"measurement": "Spont. (spontaneity or bloom)", "setting": "[1]; 34 ppm water", "result": "F"}, {"measurement": "% Separation, 1 h", "setting": "[1]; 34 ppm water", "result": 3.1, "unit": "%"}, {"measurement": "% Separation, 24 h", "setting": "[1]; 34 ppm water", "result": "3 C, %"}, {"measurement": "% Separation, 24 h, oil", "setting": "[1]; 34 ppm water", "result": 1, "unit": "O %"}, {"measurement": "Spont. (spontaneity or bloom)", "setting": "[1]; 1000 ppm water", "result": "F"}, {"measurement": "% Separation, 1 h", "setting": "[1]; 1000 ppm water", "result": 3, "unit": "%"}, {"measurement": "% Separation, 24 h", "setting": "[1]; 1000 ppm water", "result": "2.5 C, %"}, {"measurement": "% Separation, 24 h, oil", "setting": "[1]; 1000 ppm water", "result": 1, "unit": "O %"}]}, {"compound": "CCCCCCCCCC(=O)OC(CCCCCCCC(=O)OC)C(CCCCCCCC(=O)OC)S(=O)(=O)[O-].[Na+]", "note": "(centres unmarked) [C18-64, DBE C10 FA (75:25) SLA]", "values": [{"measurement": "Spont. (spontaneity or bloom)", "setting": "[1]; 34 ppm water", "result": "F−"}, {"measurement": "% Separation, 1 h", "setting": "[1]; 34 ppm water", "result": 3.2, "unit": "%"}, {"measurement": "% Separation, 24 h", "setting": "[1]; 34 ppm water", "result": "2.5 C, %"}, {"measurement": "% Separation, 24 h, oil", "setting": "[1]; 34 ppm water", "result": 1, "unit": "O %"}, {"measurement": "Spont. (spontaneity or bloom)", "setting": "[1]; 1000 ppm water", "result": "F−"}, {"measurement": "% Separation, 1 h", "setting": "[1]; 1000 ppm water", "result": 3.7, "unit": "%"}, {"measurement": "% Separation, 24 h", "setting": "[1]; 1000 ppm water", "result": "3 C, %"}, {"measurement": "% Separation, 24 h, oil", "setting": "[1]; 1000 ppm water", "result": 1, "unit": "O %"}]}]}
